The values below are quoted from earlier work in patent publication US4203975A, “Psychopharmacological peptides suitable for therapeutic administration” (Akzona Incorporated, priority 1977, dated 1980).

The conditions of series [1]: prior art.
The next series relates to rats. The following applies: rats from which the hypophysis or the posterior lobe thereof has been removed.

`NC(=O)CC[C@@H]1NC(=O)[C@H](Cc2ccccc2)NC(=O)[C@H](Cc2ccc(O)cc2)NC(=O)[C@@H](N)CSSC[C@@H](C(=O)N2CCC[C@H]2C(=O)N[C@@H](CCCN=C(N)N)C(=O)NCC(N)=O)NC(=O)[C@H](CC(N)=O)NC1=O` [vasopressin]: the pressor activity result in series [1] was “extremely powerful pressor activity”.

For (Lys)-vasopressin zinc tannate, in the series with rats, the “inhibition of the extinction of the conditioned flight response” value is reported as “capable of inhibiting the extinction of the conditioned flight response”.
